{
  "source": "paper PMC5613053",
  "about": "(Investigational New Drugs, 2017)",
  "key": {"AXL": {"biological_target": "T1, AXL (Homo sapiens, UniProt P30530)", "T1 construct": "purchased Carna Biosciences, Inc", "experiment": "Kinase inhibitory assay (TK-ELISA / off-chip MSA)", "type": "biochemical", "details": "1 nM; single experiment", "experimental": "These assays were conducted according to the manufacturer’s instructions. […] TK-ELISA and MSA assays were used to conduct IC50 studies for FLT3, LTK, AXL, and c-KIT; the HTRF® KinEASE™-TK assay (Sceti Medical Labo, Tokyo, Japan) was performed according to the manufacturer’s protocol to assess the IC50 value of echinoderm microtubule-associated protein-like 4-ALK (EML4-ALK; three individual experiments for each kinase)."}, "p-AKT": {"test_system": "p-AKT", "experiment": "Immunoblot of downstream FLT3 targets in MV4-11 cells", "type": "cell-based", "details": "Homo sapiens", "procedure": "(§1) FLT3 immunoprecipitation and immunoblotting for all targets were performed following standard protocols. Detailed methods are provided in the online resource.\n(§2) Cells were treated for 2 h prior to cell lysate preparation in RIPA buffer supplemented with phosphatase / protease inhibitors. Following sample preparation, protein lysates were electrophoresed on 7.5% gels and transferred to PVDF membranes.\n(§3) All membranes were blocked using either Blocking One or Blocking One-P (Nacalai Tesque Inc., Kyoto, Japan) for 1 h prior to an overnight incubation with primary antibody. Membranes were incubated overnight at 4°C with one of the following antibodies: anti-FLT3 antibody (Abcam), anti-phosphorylated pan-tyrosine, anti-ERK, anti-phospho-ERK, anti-STAT5, anti-phospho-STAT5, anti-AKT, anti-phospho-AKT, anti-AXL, anti-phospho-AXL, or anti-actin. The membranes were then washed with 1× TBS Tween-20 (TBS-T) Buffer (Thermo Fisher Scientific Inc., Rockford, IL) and incubated with an appropriate HRP-linked secondary antibody (Cell Signaling Technology) for 1 h at room temperature. After a final wash, ECL Western Blotting Detection Reagent ECL-prime (GE Healthcare, Fairfield, CT) were applied to the membranes and signals were detected with a CCD camera (ImageQuant LAS4000; GE Healthcare). Signal intensity was then quantified using ImageQuant™ TL software (GE Healthcare). The study was performed once in triplicate, and the mean percentage of phosphorylated protein to total protein relative to that in vehicle-treated cells was calculated."}, "p-ERK": {"test_system": "p-ERK", "experiment": "Immunoblot of downstream FLT3 targets in MV4-11 cells", "type": "cell-based", "details": "Homo sapiens", "procedure": "as §1, §2, §3"}, "p-STAT5": {"test_system": "p-STAT5", "experiment": "Immunoblot of downstream FLT3 targets in MV4-11 cells", "type": "cell-based", "details": "Homo sapiens", "procedure": "as §1, §2, §3"}, "phosphorylated AXL": {"biological_target": "T2, phosphorylated AXL (Homo sapiens, UniProt P30530)", "T2 construct": "expressed in transfected cells; host or cells: MV4-11-AXL cells (MV4-11 exogenously expressing AXL)", "T2 sequence (P30530 26-894)": "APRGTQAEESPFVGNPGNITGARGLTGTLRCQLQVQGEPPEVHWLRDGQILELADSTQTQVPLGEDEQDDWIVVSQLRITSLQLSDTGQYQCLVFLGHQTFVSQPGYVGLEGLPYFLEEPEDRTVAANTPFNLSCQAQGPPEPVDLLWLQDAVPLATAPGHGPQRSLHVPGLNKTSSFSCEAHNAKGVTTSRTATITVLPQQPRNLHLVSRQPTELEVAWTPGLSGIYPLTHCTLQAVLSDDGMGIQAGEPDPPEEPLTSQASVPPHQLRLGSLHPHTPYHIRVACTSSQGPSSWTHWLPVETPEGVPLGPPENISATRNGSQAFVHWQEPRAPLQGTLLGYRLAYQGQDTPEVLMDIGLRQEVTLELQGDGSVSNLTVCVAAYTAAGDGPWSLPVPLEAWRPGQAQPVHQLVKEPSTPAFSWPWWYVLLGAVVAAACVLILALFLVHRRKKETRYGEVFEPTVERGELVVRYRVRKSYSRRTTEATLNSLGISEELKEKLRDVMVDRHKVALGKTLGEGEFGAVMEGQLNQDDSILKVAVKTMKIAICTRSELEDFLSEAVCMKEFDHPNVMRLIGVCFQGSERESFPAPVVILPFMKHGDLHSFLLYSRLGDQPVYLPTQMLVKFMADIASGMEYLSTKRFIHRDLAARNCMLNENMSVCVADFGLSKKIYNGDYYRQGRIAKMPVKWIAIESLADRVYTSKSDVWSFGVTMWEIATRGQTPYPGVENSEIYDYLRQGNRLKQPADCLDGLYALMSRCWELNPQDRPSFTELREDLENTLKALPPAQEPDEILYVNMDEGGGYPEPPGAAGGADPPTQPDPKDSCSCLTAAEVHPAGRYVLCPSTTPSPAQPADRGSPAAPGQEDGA", "experiment": "Immunoblot of phospho-AXL in MV4-11-AXL cells", "type": "cell-based", "details": "4 h, MV4–11 cells expressing exogenous AXL", "procedure": "Cells were treated for 4 h prior to cell lysate preparation in RIPA buffer supplemented with phosphatase / protease inhibitors. The protein lysates were subsequently electrophoresed on 7.5% gels and transferred to PVDF membranes.\nas §3\nFig. S1. […] Protein lysates were collected in RIPA buffer and immunoblotting was performed to detect both phosphorylated and total levels of AXL (triplicate)."}, "MV4–11 tumors": {"test_system": "MV4–11 tumors", "experiment": "MV4–11 subcutaneous xenograft antitumor activity", "type": "in vivo, mice", "details": "28 days; for Mice with complete tumor regression: n = 6", "procedure": "(§4) Once tumor growth had been confirmed, mice xenografted with MV4–11 cells were monitored for 28 days; mice xenografted with Ba/F3 cells expressing FLT3 mutations were monitored for 7 days. Tumor diameter was measured using a caliper, and tumor volume was determined by calculating the volume of an ellipsoid using the formula: length × width^2 × 0.5. Body weight was measured using a standard balance. Data are expressed as mean ± SEM from n = 6 mice/group (MV4–11) and n = 5 mice/group (Ba/F3).\n(§5) After tumor establishment, mice were divided into groups such that the mean tumor volume was approximately equal in each group."}, "[1]": {"test_system": "Ba/F3 cells expressing FLT3-ITD", "experiment": "Ba/F3 FLT3-ITD subcutaneous xenograft", "type": "in vivo, mice", "details": "up to 7 days", "procedure": "as §4, §5"}, "MV4–11-luc cells": {"test_system": "MV4–11-luc cells", "experiment": "Intra-bone marrow transplantation (IBMT) model", "type": "in vivo, mice", "procedure": "In the intra-bone marrow transplantation (IBMT) model, MV4–11-luc cells (1 × 10^6 cells/mouse) were injected into the bone marrow of the left tibia of female NOD-SCID mice (day 0) following the protocol detailed by Lee et al.. Tumor growth was monitored by bioluminescent imaging of the whole body with an IVIS Spectrum (PerkinElmer, Waltham, MA). […] Tumor growth was monitored once a week during the dosing period and then every other week until day 100. Survival was also monitored daily until day 168."}, "[2]": {"details": "read-out: Kinase inhibition at the specified gilteritinib concentration (%), 0.1 nM, 2 h"}, "[3]": {"details": "read-out: Kinase inhibition at the specified gilteritinib concentration (%), 1 nM, 2 h"}, "[4]": {"details": "read-out: Kinase inhibition at the specified gilteritinib concentration (%), 10 nM, 2 h"}},
  "data": [
    {"smiles": "CCc1nc(C(N)=O)c(Nc2ccc(N3CCC(N4CCN(C)CC4)CC3)c(OC)c2)nc1NC1CCOCC1", "note": "[gilteritinib]", "values": [
      {"measurement": "inhibition at 0.001 µM", "setting": "AXL", "value": "> 50", "unit": "%"},
      {"measurement": "activity at 0.0001 µM", "setting": "p-AKT; [2]", "value": 65, "unit": "%"},
      {"measurement": "activity at 0.001 µM", "setting": "p-AKT; [3]", "value": 48, "unit": "%"},
      {"measurement": "activity at 0.01 µM", "setting": "p-AKT; [4]", "value": 9, "unit": "%"},
      {"measurement": "activity at 0.0001 µM", "setting": "p-ERK; [2]", "value": 54, "unit": "%"},
      {"measurement": "activity at 0.001 µM", "setting": "p-ERK; [3]", "value": 22, "unit": "%"},
      {"measurement": "activity at 0.01 µM", "setting": "p-ERK; [4]", "value": 1, "unit": "%"},
      {"measurement": "activity at 0.0001 µM", "setting": "p-STAT5; [2]", "value": 114, "unit": "%"},
      {"measurement": "activity at 0.001 µM", "setting": "p-STAT5; [3]", "value": 23, "unit": "%"},
      {"measurement": "activity at 0.01 µM", "setting": "p-STAT5; [4]", "value": 0, "unit": "%"},
      {"measurement": "Decrease of phosphorylated AXL levels", "setting": "phosphorylated AXL; 1 nM", "value": 38, "unit": "%"},
      {"measurement": "Decrease of phosphorylated AXL levels", "setting": "phosphorylated AXL; 10 nM", "value": 29, "unit": "%"},
      {"measurement": "Decrease of phosphorylated AXL levels", "setting": "phosphorylated AXL; 100 nM", "value": 22, "unit": "%"},
      {"measurement": "Growth inhibition of MV4–11 tumors", "setting": "MV4–11 tumors; 1 mg/kg/day oral once daily", "value": 63, "unit": "%"},
      {"measurement": "Growth inhibition of MV4–11 tumors", "setting": "MV4–11 tumors; 3 mg/kg/day oral once daily", "value": 80, "unit": "%"},
      {"measurement": "Tumor regression", "setting": "MV4–11 tumors; 6 mg/kg/day oral once daily", "value": 93, "unit": "%"},
      {"measurement": "Mice with complete tumor regression", "setting": "MV4–11 tumors; 6 mg/kg/day", "value": "Four of the six mice"},
      {"measurement": "Tumor regression", "setting": "MV4–11 tumors; 10 mg/kg/day oral once daily", "value": 100, "unit": "%"},
      {"measurement": "Mice with complete tumor regression", "setting": "MV4–11 tumors; 10 mg/kg/day", "value": "all six mice"},
      {"measurement": "Antitumor effect (tumor volume)", "setting": "[1]; 10 mg/kg once-daily oral", "value": "showed antitumor efficacy"},
      {"measurement": "Antitumor effect (tumor volume)", "setting": "[1]; 30 mg/kg once-daily oral", "value": "induced tumor regression"},
      {"measurement": "Survival", "setting": "MV4–11-luc cells; 30 mg/kg once daily day 15–70, monitored until day 168, n = 10", "value": "all treated mice survived to day 168"},
      {"measurement": "MV4–11 cell infiltration", "setting": "MV4–11-luc cells; 30 mg/kg once daily, whole-body imaging", "value": "no evidence of cell infiltration"}
    ]}
  ]
}
